The values below come from patent publication US20260137814A1, “FLUORESCENT COMPOUNDS FOR ACCELERATED CANCER THERANOSTIC” (The Hong Kong University of Science and Technology, priority 2022, published 2026).

Series [1] is described as follows: Absorption and emission spectra in solution. Type of series: physicochemical. The text has this: Expectedly, the emission spectrum of TBT-2(1P-DPA), and TBT-2(2P-DPA) both ends below 1000 nm, while the emission maximum of TBT-2(TP-DPA) was 1046 nm when upon 808 nm excitation (FIG. 3d). […] The experimental characterization is in consistency with our theoretical hypothesis, which made TBT-2(TP-DPA) ideal candidates as the template of NIR-II theranostic agents.

A short description of series [2]: Absolute fluorescence quantum yield in the NIR region. Type of series: physicochemical. The following applies: in toluene, under 808 nm excitation. The method, then:
Under 808 nm excitation, the absolute quantum yield of TBT-2(TP-DPA) in the NIR region was determined to be 10.4% in toluene.

For `CCCCC(CC)Cn1nc2c(-c3ccc(N(c4ccc(OC)cc4)c4ccc(OC)cc4)cc3)c3c(c(-c4ccc(N(c5ccc(OC)cc5)c5ccc(OC)cc5)cc4)c2n1)N=S=N3` (stereo not drawn) [TBT-2(1P-DPA)], in series [1] (in THE solution), the “absorption ended up to” value was 800 nm and the absorption peak turned out to be 580 nm.

`CCCCC(CC)Cn1nc2c(-c3ccc(-c4ccc(N(c5ccc(OC)cc5)c5ccc(OC)cc5)cc4)s3)c3c(c(-c4ccc(-c5ccc(N(c6ccc(OC)cc6)c6ccc(OC)cc6)cc5)s4)c2n1)N=S=N3` (stereo not drawn) [TBT-2(TP-DPA)]: the “emission wavelength extended to” value in series [1] is on record as ~1500 nm. Also, the absorption peak entry in series [1] (in THE solution) was “around 800 nm”. Besides, in series [1] (upon 808 nm excitation), the emission maximum is recorded as 1046 nm. The “absolute quantum yield in the NIR region” value in series [2] amounted to 10.4%.
